Test results reported in ChEMBL document CHEMBL1131848, “8-aminoquinolines as anticoccidials - Part III” (Bioorg Med Chem Lett, 1999).
In brackets after ≈: the same amount, converted by molar mass.

Experiments:
Eimeria tenella [1] = experiment: In vivo anti-coccidial activity against Eimeria tenella (chick 7-day coccidiosis model); format: functional
Eimeria acervulina [2] = experiment: In vivo anti-coccidial activity against Eimeria acervulina (chick 7-day coccidiosis model); format: functional
Eimeria tenella [3] = experiment: In vitro anti-coccidial activity against chicken hepatocyte Eimeria tenella; format: functional, organism-based
Eimeria acervulina [4] = experiment: In vitro anti-coccidial activity against chicken hepatocyte Eimeria acervulina; format: functional, organism-based

| SMILES | ED95 (Eimeria tenella [1]) [p.p.m. in feed] | ED95 (Eimeria acervulina [2]) [p.p.m. in feed] | IC50 (Eimeria tenella [3]) [µg/mL] | IC50 (Eimeria acervulina [4]) [µg/mL] |
| --- | --- | --- | --- | --- |
| COc1cc(NCCCCCNC2CC[S+]([O-])CC2)c2ncccc2c1 (configuration not stated) | >25 | >25 | > 1 | > 5 |
| COc1cc(NCc2ccc(NC(C)C)cc2)c2ncccc2c1 | >12.5 | >12.5 | > 1 | 1 (≈ 3.11 µM) |
| COc1cc(NCCCCCNC2CCCO2)c2ncccc2c1 (configuration not stated) | 12.5 | 12.5 | 0.2 (≈ 0.607 µM) | 1 (≈ 3.04 µM) |
| COc1cc(NCCCCCNC2CCSCC2)c2ncccc2c1 | >50 | >50 | 0.2 (≈ 0.556 µM) | 1 (≈ 2.78 µM) |
| COc1cc(NCCCCCNC2CCCC2)c2ncccc2c1 | >25 | >25 | 0.2 (≈ 0.611 µM) | 0.2 (≈ 0.611 µM) |
| COc1cc(NCCCCCN)c2ncccc2c1 | 100 | 100 | > 1 | 1 (≈ 3.86 µM) |
| COc1cc(NCCCCNC(C)C)c2ncccc2c1 | 6.25 | 6.25 | 0.2 (≈ 0.696 µM) | 0.2 (≈ 0.696 µM) |
| COc1cc(NCCCCCNC2CC2)c2ncccc2c1 | >12.5 | >12.5 | 0.2 (≈ 0.668 µM) | 0.2 (≈ 0.668 µM) |
| COc1cc(NCCCNC(C)C)c2ncccc2c1 | >25 | >25 | 0.2 (≈ 0.732 µM) | 0.2 (≈ 0.732 µM) |
| COc1cc(NCCCCCNC(C)(C)C)c2ncccc2c1 | 6.25 | >25 | 0.2 (≈ 0.634 µM) | 0.2 (≈ 0.634 µM) |
| CCN(CC)CCC[C@H](C)Nc1cc(OC)cc2cccnc12 | >50 | >50 | 0.2 (≈ 0.634 µM) | > 1 |
| COc1cc(N[C@@H](C)CCCNC(C)C)c2ncccc2c1 | >50 | >50 | > 1 | 1 (≈ 3.32 µM) |
| COc1cc(NCCCCCNC(C)C)c2ncccc2c1 [PENTAQUINE] | 12.5 | 12.5 | 0.2 (≈ 0.663 µM) | 0.2 (≈ 0.663 µM) |
| CCNCCCCCNc1cc(OC)cc2cccnc12 | 6.25 | >50 | 0.2 (≈ 0.696 µM) | 0.2 (≈ 0.696 µM) |
| COc1cc(NCCCCCNC2CCOCC2)c2ncccc2c1 | 6.25 | 12.5 | 0.2 (≈ 0.582 µM) | 0.2 (≈ 0.582 µM) |
| COc1cc(NCCNC(C)C)c2ncccc2c1 | >25 | >25 | > 1 | 1 (≈ 3.86 µM) |
| N#CC(c1ccc(Cl)cc1)c1c(Cl)cc(-n2ncc(=O)[nH]c2=O)cc1Cl (configuration not stated) [DICLAZURIL] | 1 | 1 | 0.008 (≈ 0.0196 µM) | 0.008 (≈ 0.0196 µM) |
| COc1cc(NCCCCCNCc2ccccc2)c2ncccc2c1 | >25 | >25 | 0.2 (≈ 0.572 µM) | 0.2 (≈ 0.572 µM) |
